According to ChEMBL document CHEMBL1139107, “Design, synthesis, and biological evaluation of novel analogues of archazolid: a highly potent simplified V-ATPase inhibitor” (Bioorg Med Chem Lett, 2007):

How the values were obtained:
[1] = test system: L929; test: Growth inhibition of mouse L929 cells by MTT assay; assay type: functional, cell-based
[2] = Inhibition of tobacco hornworm midgut vacuolar ATPase V1/V0 holoenzyme; set-up: species or system Manduca sexta

For `CNC(=O)O[C@@H](CC(C)C)c1nc([C@H]2OC(=O)/C(C)=C/C/C(C)=C/[C@@H](O[Si](C)(C)C(C)(C)C)[C@@H](C)\C=C(C)/C=C(C)\C=C\[C@@H](O)[C@H](C)[C@H](OC)/C(C)=C/C=C/[C@@H]2C)cs1`, which IC50 [1] is on record?
Its IC50 is 940 nM.

For `CNC(=O)O[C@@H](CC(C)C)c1nc([C@H]2OC(=O)/C(C)=C/C/C(C)=C/[C@@H](OC(=O)c3ccc([N+](=O)[O-])cc3)[C@@H](C)\C=C(C)/C=C(C)\C=C\[C@@H](O)[C@H](C)[C@H](OC)/C(C)=C/C=C/[C@@H]2C)cs1`, which IC50 [1] is on record?
Its IC50 is 290 nM.

For `CO[C@@H]1/C(C)=C/C=C/[C@H](C)[C@@H](c2csc([C@@H](O)CC(C)C)n2)OC(=O)/C(C)=C/C/C(C)=C/[C@@H](O)[C@@H](C)\C=C(C)/C=C(C)\C=C\[C@@H](O)[C@@H]1C`, which IC50 [1] is on record?
The IC50 was 14 nM.

Which IC50 [2] does the source give for `CNC(=O)O[C@@H](CC(C)C)c1nc([C@H]2OC(=O)/C(C)=C/C/C(C)=C/[C@@H](O)[C@@H](C)\C=C(C)/C=C(C)\C=C\[C@@H](O)[C@H](C)[C@H](OC)/C(C)=C/C=C/[C@@H]2C)cs1` [ARCHAZOLID A] here?
The IC50 was 0.6 nmol.

What about the IC50 [1] of the same compound?
The IC50 was 0.81 nM.

Which IC50 [1] does the source give for `CNC(=O)O[C@@H](CC(C)C)c1nc([C@H]2OC(=O)/C=C/C/C(C)=C/[C@@H](O)[C@@H](C)\C=C(C)/C=C(C)\C=C\[C@@H](O)[C@H](C)[C@H](OC)/C(C)=C/C=C/[C@@H]2C)cs1` [ARCHAZOLID B] here?
Its IC50 is 1.1 nM.

Which IC50 [1] does the source give for `CNC(=O)O[C@@H](CC(C)C)c1nc([C@H]2OC(=O)/C(C)=C/C/C(C)=C/[C@@H](O)[C@@H](C)\C=C(C)/C=C(C)\C=C\C(=O)[C@H](C)[C@H](OC)/C(C)=C/C=C/[C@@H]2C)cs1` [DEHYDROARCHAZOLID] here?
The IC50 was > 5000 nM.
